Where two headings read alike, the source gives them in different places.
Legend:
[1] = tested on: hepatic metastases of murine colon carcinoma C-26 cells; experiment: Effect of free and conjugated FUdR on liver metastases of C-26 cells in mouse; format: in vivo; conditions: for Increase of liver weight: saline 1.22 ± 0.25; for Total Liver DNA: saline 11.83 ± 1.75
Procedure: (§1) Female Balb/C mice 7-8 weeks old (weighing 16-19 g) and male Wistar rats (weighing 170-190 g) were used. They were obtained from Harlan Italy and were maintained in an animal facility at the Department of Experimental Pathology, Bologna, receiving humane care, in accordance with European Legislation. The protocols of the experiments were approved by the Ethical Committee of the University of Bologna. Animals. were fed a standard pellet diet ad lib.
Compounds were injected intravenously every other day, starting 24 h after inoculation of tumour cells. Four administrations were performed, and the animals were sacrificed one day after the injection.

[2] = tested on: serum alanine aminotransferase (ALT); experiment: Effect on alanine aminotransferase (ALT) serum levels in mouse; format: in vivo
Procedure: To verify whether the selective delivery of FUdR to hepatic cells accomplished by the conjugate causes liver damage, we compared the effect of free and conjugated FUdR on the serum alanine aminotransferase (ALT) (EC 2.6.1.2) level in mice (Table 3). An increase in the level of this enzyme is an index of hepatocyte damage. The drugs were administered according to the schedule used for the experiments on the growth of hepatic metastases.

[3] = [^3H]FUdR levels in inferior vena cava (IVC) and hepatic veins (HV) of rats intravenously injected with free or L-HSA conjugated [^3H]FUdR; format: in vivo; conditions: rat
Text: Two radioactive conjugates were synthesised: one labelled in the carrier (L-[^14C]HSA-FUdR) and one in the drug moiety (L-HSA-[^3H]FUdR). […] The conjugateradioactive in the drug moiety (three preparations) was obtained using [^3H]FUdR (Moravek).
as §1, with “They” for “Female Balb/C mice 7-8 weeks old (weighing 16-19 g) and male Wistar rats (weighing 170-190 g) were used. They”
Plasma levels of free [^3H]FUdR were measured by using the isotope dilution procedure and HPLC. In order to identify the elution time of [^3H]FUdR in HPLC chromatogram and to evaluate the recovery, 15 μg of unlabeled FUdR was added to each plasma sample (400 μl), kept cold in ice. Plasma proteins were removed by the addition of 30 μl trichloroacetic acid 80% and centrifugation at 2-4° C. After diethylether extraction to eliminate trichloroacetic acid, […] supernatant was chromatographed on a Spherisorb ODS2 equilibrated on 20 mM sodium tetraborate pH 7.5 and eluted with a linear gradient of methanol (0-30%). Radioactivity eluting at the position of FUdR marker was counted and the plasma concentration of [^3H]FUdR was calculated taking into account the recovery of the marker (measured by UV absorbance) and the specific activity (SA) of injected [^3H]FUdR. […] When radioactivity of FUdR peak was lower than 200 dpm, the plasma concentration of [^3H]FUdR was considered below a measurable level (BML). With a 90% recovery of FUdR marker, the lowest measurable plasma concentration was about 25 ng [^3H]FUdR/ml.
These concentrations are a measure of drug levels in systemic circulation and in liver blood, respectively.

[4] = patients with colorectal cancer, intravenous continuous infusion of a therapeutic dose; cited from earlier work
[5] = Exp. 1, daily dose 5 μg/g i.v. every other day x4, NS

O=c1[nH]c(=O)n([C@H]2C[C@H](O)[C@@H](CO)O2)cc1F [Free FUdR, 5-fluoro-2′-deoxyuridine]
Increase of liver weight [1, 5]: 1.00 ± 0.17 g
Total Liver DNA [1, 5]: 9.47 ± 1.06 mg
Increase of liver weight ([1]; Exp. 1, daily dose 10 μg/g i.v. every other day x4, p = 0.070): 0.64 ± 0.15 g
Total Liver DNA ([1]; Exp. 1, daily dose 10 μg/g i.v. every other day x4, p = 0.041): 7.32 ± 0.91 mg
Daily dose that inhibited the tumour growth ([1]; i.v. every other day, four administrations): 10 µg/g
Serum ALT levels ([2]; Exp 2, 50 μg/g, four i.v. injections on alternate days, saline 64.5 ± 15.0, p = 0.045): 114.8 ± 16.0 p = 0.045 U/I
Effect on serum ALT level ([2]; dose 5 times higher than that active on the metastases): increase in ALT levels at the limit of statistical significance
concentration at 15 min ([3]; male, Wistar, plasma of hepatic vein blood, iv, i.v. 2.5 μg/g, 15 min, read-out: [^3H]FUdR level HV): 57.6 ± 9 ng/mL
concentration at 7 min ([3]; male, Wistar, plasma of hepatic vein blood, iv, i.v. 10 μg/g, 7 min, read-out: [^3H]FUdR level HV): 385 ng/mL
concentration at 15 min ([3]; male, Wistar, plasma of hepatic vein blood, iv, i.v. 10 μg/g, 15 min, read-out: [^3H]FUdR level HV): 203 ng/mL
concentration at 30 min ([3]; male, Wistar, plasma of hepatic vein blood, iv, i.v. 10 μg/g, 30 min, read-out: [^3H]FUdR level HV): 77.5 ± 43.6 ng/mL
concentration at 15 min ([3]; male, Wistar, plasma of hepatic vein blood, iv, i.v. free 1.2 μg/g, 15 min, read-out: [^3H]FUdR level HV): 40.9 ± 7.7 ng/mL
concentration at 7 min ([3]; male, Wistar, plasma of inferior vena cava blood, iv, i.v. 0.15 μg/g, 7 min, read-out: [^3H]FUdR level IVC): 80.1 ± 4.2 ng/mL
concentration at 15 min ([3]; male, Wistar, plasma of inferior vena cava blood, iv, i.v. 2.5 μg/g, 15 min, read-out: [^3H]FUdR level IVC): 404 ± 47.9 ng/mL
concentration at 30 min ([3]; male, Wistar, plasma of inferior vena cava blood, iv, i.v. 2.5 μg/g, 30 min, read-out: [^3H]FUdR level IVC): 156 ± 51.9 ng/mL
concentration at 45 min ([3]; male, Wistar, plasma of inferior vena cava blood, iv, i.v. 2.5 μg/g, 45 min, read-out: [^3H]FUdR level IVC): 25.5 ± 0.2 ng/mL
concentration at 7 min ([3]; male, Wistar, plasma of inferior vena cava blood, iv, i.v. 10 μg/g, 7 min, read-out: [^3H]FUdR level IVC): 1570 ng/mL
concentration at 15 min ([3]; male, Wistar, plasma of inferior vena cava blood, iv, i.v. 10 μg/g, 15 min, read-out: [^3H]FUdR level IVC): 1060 ng/mL
concentration at 30 min ([3]; male, Wistar, plasma of inferior vena cava blood, iv, i.v. 10 μg/g, 30 min, read-out: [^3H]FUdR level IVC): 467 ± 228 ng/mL
concentration at 15 min ([3]; male, Wistar, plasma of inferior vena cava blood, iv, i.v. free 1.2 μg/g, 15 min, read-out: [^3H]FUdR level IVC): 275.2 ± 0.7 ng/mL
concentration at 30 min ([3]; male, Wistar, plasma of inferior vena cava blood, iv, i.v. free 1.2 μg/g, 30 min, read-out: [^3H]FUdR level IVC): 38.9 ± 5.8 ng/mL
[^3H]FUdR level HV ([3]; i.v. 0.15 μg/g, 7 min): BML^b) (Below Measurable Level (<25 ng/ml))
Levels in HV / Levels in IVC ([3]; i.v. 2.5 μg/g, 15 min): 0.15 ± 0.04
Levels in HV / Levels in IVC ([3]; i.v. 2.5 μg/g, 30 min): 0.19
[^3H]FUdR level HV ([3]; i.v. 2.5 μg/g, 45 min): BML (Below Measurable Level (<25 ng/ml))
Levels in HV / Levels in IVC ([3]; i.v. 10 μg/g, 7 min): 0.24
Levels in HV / Levels in IVC ([3]; i.v. 10 μg/g, 15 min): 0.19
Levels in HV / Levels in IVC ([3]; i.v. 10 μg/g, 30 min): 0.16 ± 0.02
Levels in HV / Levels in IVC ([3]; i.v. free 1.2 μg/g, 15 min): 0.15 ± 0.03
[^3H]FUdR level HV ([3]; i.v. free 1.2 μg/g, 30 min): BML (Below Measurable Level (<25 ng/ml))
[^3H]FUdR level HV ([3]; i.v. free 1.2 μg/g, 60 min): BML (Below Measurable Level (<25 ng/ml))
[^3H]FUdR level IVC ([3]; i.v. free 1.2 μg/g, 60 min): BML (Below Measurable Level (<25 ng/ml))
Estimated blood concentration of the drug [4]: about 0.2 ng/ml

Source: US20040044178A1, “Hepatotropic conjugates of antiblastic drugs accomplishing a loco-regional chemotherapy of liver micrometastases after adminstration by peripheral venous route” (priority 2001, published 2004)
